Values quoted from earlier work, collected in paper PMC12930396, “Positive modulators of N-methyl-D-aspartate receptor: structure–activity relationship study on steroidal C-17 and C-20 oxime ethers” (RSC Advances, 2026).
Where a name gives a salt, the structure may show the parent alone.

Legend:
GluN1/GluN2B receptors = biological target: T1, GluN1/GluN2B receptors (Rattus norvegicus, UniProt P35439+Q00960); parameters: method as in PMID 29708744; settings: reference compound PES; cited from earlier work
T1 construct: expressed in transfected cells; host or cells: HEK293 cells (ATCC No. CRL-1573)

NMDA receptors = settings: C-17 ketone steroids; cited from earlier work

T1 sequence (Q00960 27-1482, other chains not shown): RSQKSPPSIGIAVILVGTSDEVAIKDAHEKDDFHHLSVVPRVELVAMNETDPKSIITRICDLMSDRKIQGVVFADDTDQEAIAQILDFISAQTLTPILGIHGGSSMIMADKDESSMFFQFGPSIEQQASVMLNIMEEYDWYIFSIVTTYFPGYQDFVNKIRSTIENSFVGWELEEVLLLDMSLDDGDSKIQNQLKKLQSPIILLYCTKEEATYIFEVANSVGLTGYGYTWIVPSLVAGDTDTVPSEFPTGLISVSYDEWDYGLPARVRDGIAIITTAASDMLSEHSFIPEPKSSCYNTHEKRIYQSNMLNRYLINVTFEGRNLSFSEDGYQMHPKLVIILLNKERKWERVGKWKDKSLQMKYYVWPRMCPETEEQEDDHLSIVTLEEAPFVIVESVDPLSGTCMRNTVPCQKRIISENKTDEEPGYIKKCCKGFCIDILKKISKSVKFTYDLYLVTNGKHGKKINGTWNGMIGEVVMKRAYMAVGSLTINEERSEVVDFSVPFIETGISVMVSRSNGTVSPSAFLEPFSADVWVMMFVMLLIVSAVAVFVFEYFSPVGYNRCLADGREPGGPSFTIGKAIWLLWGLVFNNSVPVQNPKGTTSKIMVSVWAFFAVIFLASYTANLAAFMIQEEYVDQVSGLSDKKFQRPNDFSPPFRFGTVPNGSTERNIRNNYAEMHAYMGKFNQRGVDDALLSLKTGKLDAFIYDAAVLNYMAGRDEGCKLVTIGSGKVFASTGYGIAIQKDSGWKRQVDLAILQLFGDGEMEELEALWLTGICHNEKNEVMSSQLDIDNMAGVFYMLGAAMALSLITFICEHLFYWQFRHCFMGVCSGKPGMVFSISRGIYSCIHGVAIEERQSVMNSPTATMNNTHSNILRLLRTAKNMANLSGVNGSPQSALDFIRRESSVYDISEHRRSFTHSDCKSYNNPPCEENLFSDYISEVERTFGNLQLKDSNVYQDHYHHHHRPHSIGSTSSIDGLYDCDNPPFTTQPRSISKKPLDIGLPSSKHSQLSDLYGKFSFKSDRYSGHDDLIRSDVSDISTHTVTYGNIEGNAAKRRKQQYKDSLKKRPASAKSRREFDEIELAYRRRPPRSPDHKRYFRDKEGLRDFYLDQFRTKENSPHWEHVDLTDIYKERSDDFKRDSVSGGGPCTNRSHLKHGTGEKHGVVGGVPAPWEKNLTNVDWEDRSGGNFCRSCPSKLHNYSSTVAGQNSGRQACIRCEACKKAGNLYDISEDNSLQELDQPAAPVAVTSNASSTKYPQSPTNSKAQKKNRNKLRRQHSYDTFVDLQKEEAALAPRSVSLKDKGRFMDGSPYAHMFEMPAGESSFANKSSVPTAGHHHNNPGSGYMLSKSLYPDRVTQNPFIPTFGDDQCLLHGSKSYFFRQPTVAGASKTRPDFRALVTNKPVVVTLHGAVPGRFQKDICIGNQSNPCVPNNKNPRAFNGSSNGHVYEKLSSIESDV

## 20-oxo-pregn-5-en-3β-yl sulfate [PES]
GluN1/GluN2B receptors
  E max ± SEM: 116 ± 10%
  h ± SEM (apparent Hill coefficient): 1.5 ± 0.1

## C[C@]12CC[C@H](O)CC1=CC[C@@H]1[C@@H]2CC[C@]2(C)C(=O)CC[C@@H]12 [dehydroepiandrosterone, 3β-hydroxy-androst-5-en-17-one]
NMDA receptors
  Activity at NMDARs: inactive

## C[C@]12CC[C@H](OS(=O)(=O)O)CC1=CCC1C2CC[C@]2(C)C(=O)CCC12 (stereo partly shown) [dehydroepiandrosterone sulfate]
NMDA receptors
  Activity at NMDARs: inactive
